According to ChEMBL document CHEMBL5380790 (J Med Chem, 2023):
≈ marks a conversion by molar mass, not a printed value. Calls of active or inactive are those of the source. No cut-off for these calls is given here.

Columns and labels:
[1] = Efflux ratio of apparent permeability from basolateral to apical side over apical to basolateral side in human Caco-2 cells at 1 uM and measured after 2 hrs by LC-MS/MS analysis; format: ADME, cell-based
[2] = Octanol-water distribution coefficient, logD of the compound at pH 7.4; format: physicochemical
[3] = Apparent passive permeability of compound in human Caco-2 cells at 1 uM and measured after 2 hrs by LC-MS/MS analysis; format: ADME, cell-based
[4] = Dissociation constant, pKa of the compound; format: physicochemical
[5] = target: Mast/stem cell growth factor receptor Kit (Homo sapiens, UniProt P10721, DELTA560/V654A); format: cell-based, GIST-430/654
[6] = Metabolic stability in human hepatocytes assessed as intrinsic clearance measured per million cells; format: ADME, cell-based, Hepatocyte; details: read-out: CLH
[7] = Solubility of compound in FaSSIF at pH 6.5; format: physicochemical
[8] = target: hERG (KCNH2) potassium channel (Homo sapiens, UniProt Q12809); assay: Inhibition of human ERG potassium channel transfected in HEK293 cells at holding potential -80 mV at 10 uM and measured for 5 mins by whole cell patch clamp assay; format: toxicity, cell-based; details: HEK293 cells transfected with hERG
[9] = target: Mast/stem cell growth factor receptor Kit (Homo sapiens, UniProt P10721, V654A); assay: Inhibition of recombinant human KIT V654A mutant using polyGT and ATP as substrate preincubated for 20 mins followed by substrate addition and measured after 240 mins by FRET assay
[10] = Kinetic solubility of compound in PBS buffer at pH 7.4 and measured after 2 hrs by HPLC-UV analysis; format: physicochemical; details: read-out: Kinetic_solubility
[11] = Metabolic stability in human liver microsomes assessed as intrinsic clearance in presence of NADPH by UPLC analysis; format: ADME, Microsome; details: read-out: CLH
[12] = Metabolic stability in mouse liver microsomes assessed as intrinsic clearance in presence of NADPH by UPLC analysis; format: ADME, Microsome; details: read-out: CLH
[13] = target: Receptor-type tyrosine-protein kinase FLT3 (Homo sapiens) (UniProt P36888); assay: Inhibition of FLT3 (unknown origin) at 1 uM using 33P-ATP as substrate incubated for 120 mins by radiometric kinase assay
[14] = Solubility of compound in FeSSIF at pH 5.5; format: physicochemical
[15] = Solubility of compound in simulated gastric fluid at pH 1.2; format: physicochemical

Mast/stem cell growth factor receptor Kit (Homo sapiens, UniProt P10721, V654A), sequence (P10721 26-976 V654A limits assumed): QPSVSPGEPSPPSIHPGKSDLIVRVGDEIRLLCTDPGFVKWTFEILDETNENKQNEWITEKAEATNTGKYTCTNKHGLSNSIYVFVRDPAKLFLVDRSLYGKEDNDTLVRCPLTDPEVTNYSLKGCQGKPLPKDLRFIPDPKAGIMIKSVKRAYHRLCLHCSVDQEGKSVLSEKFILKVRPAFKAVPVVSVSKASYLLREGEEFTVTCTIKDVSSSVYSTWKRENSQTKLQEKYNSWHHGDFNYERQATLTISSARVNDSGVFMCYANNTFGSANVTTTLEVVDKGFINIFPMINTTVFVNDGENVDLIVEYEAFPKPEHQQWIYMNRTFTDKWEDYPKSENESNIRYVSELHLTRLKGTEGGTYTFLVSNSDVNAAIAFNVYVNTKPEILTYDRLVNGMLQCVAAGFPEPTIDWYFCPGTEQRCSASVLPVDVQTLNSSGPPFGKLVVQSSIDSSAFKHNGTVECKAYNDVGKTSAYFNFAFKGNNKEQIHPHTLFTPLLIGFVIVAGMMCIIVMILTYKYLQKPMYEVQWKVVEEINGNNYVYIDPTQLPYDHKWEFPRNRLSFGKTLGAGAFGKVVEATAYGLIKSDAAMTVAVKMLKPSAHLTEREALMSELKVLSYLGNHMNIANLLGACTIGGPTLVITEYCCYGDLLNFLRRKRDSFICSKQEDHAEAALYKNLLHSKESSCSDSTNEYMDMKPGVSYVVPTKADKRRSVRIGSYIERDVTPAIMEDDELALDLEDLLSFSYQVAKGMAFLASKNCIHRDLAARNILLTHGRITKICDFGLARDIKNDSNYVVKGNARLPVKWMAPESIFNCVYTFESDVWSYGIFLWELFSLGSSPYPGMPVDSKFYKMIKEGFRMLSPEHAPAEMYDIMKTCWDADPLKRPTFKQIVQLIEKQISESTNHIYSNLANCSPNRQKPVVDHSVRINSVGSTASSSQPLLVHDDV
Mast/stem cell growth factor receptor Kit (Homo sapiens, UniProt P10721, DELTA560/V654A), sequence (P10721 whole entry, looked up, stated change not applied): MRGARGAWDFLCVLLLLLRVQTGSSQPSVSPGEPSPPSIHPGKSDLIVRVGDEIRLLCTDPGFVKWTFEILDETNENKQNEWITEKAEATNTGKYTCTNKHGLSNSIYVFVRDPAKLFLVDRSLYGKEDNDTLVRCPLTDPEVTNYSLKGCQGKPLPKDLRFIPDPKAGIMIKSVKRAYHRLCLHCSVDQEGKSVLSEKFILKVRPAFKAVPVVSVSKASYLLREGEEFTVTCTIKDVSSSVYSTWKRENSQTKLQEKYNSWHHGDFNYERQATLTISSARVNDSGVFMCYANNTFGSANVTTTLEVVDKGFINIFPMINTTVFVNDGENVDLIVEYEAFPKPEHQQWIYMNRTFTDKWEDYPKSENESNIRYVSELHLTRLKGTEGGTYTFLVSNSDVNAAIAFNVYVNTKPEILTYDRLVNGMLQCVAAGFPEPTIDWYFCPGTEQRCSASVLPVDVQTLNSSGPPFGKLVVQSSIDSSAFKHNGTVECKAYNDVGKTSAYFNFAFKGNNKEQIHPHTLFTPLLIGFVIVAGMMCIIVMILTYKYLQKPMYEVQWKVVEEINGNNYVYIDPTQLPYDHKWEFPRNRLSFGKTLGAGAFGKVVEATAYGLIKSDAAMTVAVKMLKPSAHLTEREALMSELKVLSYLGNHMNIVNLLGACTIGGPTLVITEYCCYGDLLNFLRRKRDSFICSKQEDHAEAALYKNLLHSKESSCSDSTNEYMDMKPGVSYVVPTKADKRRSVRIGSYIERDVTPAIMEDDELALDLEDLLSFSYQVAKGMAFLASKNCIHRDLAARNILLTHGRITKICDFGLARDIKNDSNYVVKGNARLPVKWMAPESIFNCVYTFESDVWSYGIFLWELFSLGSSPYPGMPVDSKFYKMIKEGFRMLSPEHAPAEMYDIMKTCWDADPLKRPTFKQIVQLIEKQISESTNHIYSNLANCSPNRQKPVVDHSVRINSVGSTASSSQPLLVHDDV
hERG (KCNH2) potassium channel, sequence (Q12809 whole entry): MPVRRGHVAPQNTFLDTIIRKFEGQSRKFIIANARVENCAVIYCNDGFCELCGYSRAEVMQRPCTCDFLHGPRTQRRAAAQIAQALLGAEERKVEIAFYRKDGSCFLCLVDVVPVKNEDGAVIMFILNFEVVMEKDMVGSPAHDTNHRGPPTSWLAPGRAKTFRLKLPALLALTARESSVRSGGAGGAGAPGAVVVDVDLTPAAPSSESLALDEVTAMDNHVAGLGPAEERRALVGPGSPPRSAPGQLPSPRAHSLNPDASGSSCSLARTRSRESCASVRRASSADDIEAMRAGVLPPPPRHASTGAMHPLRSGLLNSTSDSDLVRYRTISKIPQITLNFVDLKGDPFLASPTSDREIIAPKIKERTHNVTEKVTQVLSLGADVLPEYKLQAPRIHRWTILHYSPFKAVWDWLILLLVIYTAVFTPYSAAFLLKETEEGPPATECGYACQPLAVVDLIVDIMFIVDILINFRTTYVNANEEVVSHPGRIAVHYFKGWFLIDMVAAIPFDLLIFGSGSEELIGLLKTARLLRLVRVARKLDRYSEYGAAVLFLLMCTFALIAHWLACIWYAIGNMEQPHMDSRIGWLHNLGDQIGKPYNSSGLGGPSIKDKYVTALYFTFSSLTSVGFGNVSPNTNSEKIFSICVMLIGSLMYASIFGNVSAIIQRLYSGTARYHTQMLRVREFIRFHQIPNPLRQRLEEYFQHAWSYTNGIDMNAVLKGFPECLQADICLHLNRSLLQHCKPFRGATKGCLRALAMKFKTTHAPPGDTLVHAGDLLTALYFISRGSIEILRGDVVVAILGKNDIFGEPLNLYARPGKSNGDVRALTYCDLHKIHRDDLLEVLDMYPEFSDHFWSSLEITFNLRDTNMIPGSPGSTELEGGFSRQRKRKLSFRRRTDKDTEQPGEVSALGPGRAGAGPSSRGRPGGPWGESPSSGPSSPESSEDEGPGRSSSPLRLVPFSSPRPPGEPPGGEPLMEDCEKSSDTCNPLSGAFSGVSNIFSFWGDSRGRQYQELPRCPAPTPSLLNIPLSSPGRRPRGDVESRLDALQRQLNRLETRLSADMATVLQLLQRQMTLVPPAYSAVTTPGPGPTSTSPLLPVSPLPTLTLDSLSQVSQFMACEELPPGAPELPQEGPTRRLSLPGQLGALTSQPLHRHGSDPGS
Receptor-type tyrosine-protein kinase FLT3 (Homo sapiens), sequence (P36888 whole entry): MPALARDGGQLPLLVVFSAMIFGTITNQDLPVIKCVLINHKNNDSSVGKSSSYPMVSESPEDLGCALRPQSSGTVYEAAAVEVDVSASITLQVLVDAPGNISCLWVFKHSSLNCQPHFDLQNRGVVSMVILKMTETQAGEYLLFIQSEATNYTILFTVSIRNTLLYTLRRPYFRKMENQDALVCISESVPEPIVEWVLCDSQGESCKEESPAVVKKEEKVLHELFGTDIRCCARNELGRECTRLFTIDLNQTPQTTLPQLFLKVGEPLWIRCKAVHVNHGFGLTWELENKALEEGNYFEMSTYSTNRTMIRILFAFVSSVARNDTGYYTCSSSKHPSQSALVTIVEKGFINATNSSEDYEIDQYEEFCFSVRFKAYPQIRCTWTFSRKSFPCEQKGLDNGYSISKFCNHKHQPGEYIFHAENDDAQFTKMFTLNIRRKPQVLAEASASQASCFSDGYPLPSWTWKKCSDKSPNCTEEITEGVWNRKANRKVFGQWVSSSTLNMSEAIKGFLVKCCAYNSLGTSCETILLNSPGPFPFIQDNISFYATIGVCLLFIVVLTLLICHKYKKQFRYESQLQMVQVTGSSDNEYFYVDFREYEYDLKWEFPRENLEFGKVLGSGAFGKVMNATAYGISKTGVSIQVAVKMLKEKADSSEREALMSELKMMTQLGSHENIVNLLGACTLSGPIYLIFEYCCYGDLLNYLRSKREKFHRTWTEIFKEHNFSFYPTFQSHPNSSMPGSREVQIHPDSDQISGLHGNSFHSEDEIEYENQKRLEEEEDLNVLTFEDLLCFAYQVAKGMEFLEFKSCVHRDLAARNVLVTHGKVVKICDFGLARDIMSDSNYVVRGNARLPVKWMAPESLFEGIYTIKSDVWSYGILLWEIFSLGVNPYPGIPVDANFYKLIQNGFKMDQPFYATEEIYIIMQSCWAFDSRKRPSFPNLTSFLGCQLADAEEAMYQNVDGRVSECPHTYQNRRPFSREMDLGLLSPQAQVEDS

Compound	efflux ratio at 2 h, 1 µM [1]	logD [2]	Papp at 2 h, 1 µM [3]	pKa [4]	IC50 [5]	hepatocyte CLint [6]	solubility [7]	inhibition at 5 min, 10 µM [8]	IC50 [9]	solubility kinetic at 2 h [10]	microsomal CLint [11]	microsomal CLint [12]	inhibition [13]	solubility [14]	solubility [15]
CN1CC(COc2ccn3c(-c4cc(NCc5ccc(-c6cnn(C)c6)cc5)ncn4)cnc3c2)C1	57	1.9	5.7 ×10⁻⁶ cm/s	9.5	61 nM	4 µL/min/1e6 cells	97 µg/mL (≈ 202 µM)	-59%	–	–	–	–	–	–	–
CN(C)CCCOc1ccn2c(-c3cc(NCc4ccc(-c5cnn(C)c5)cc4)ncn3)cnc2c1	–	2.5	–	–	43 nM	–	–	-86%	–	–	–	–	–	–	–
c1ccn2c(-c3nccc(NCc4ccc(N5CCCC5)cc4)n3)cnc2c1	–	–	–	–	680 nM	–	–	–	5.6 nM	7 µM (≈ 2.59 µg/mL)	–	–	–	–	–
c1ccn2c(-c3cncc(NCc4ccc(N5CCCC5)nc4)c3)cnc2c1	–	–	–	–	720 nM	–	–	90%	12 nM	101 µM (≈ 37.4 µg/mL)	> 75 µL/min/mg	> 75 µL/min/mg	–	–	–
COc1ccn2c(-c3cc(NCc4ccc(-c5cnn(C)c5)cc4)ncn3)cnc2c1	–	–	–	–	55 nM	–	–	–	–	< 2 µM	< 10 µL/min/mg	< 10 µL/min/mg	–	–	–
c1ccn2c(-c3nccc(NCC4CCN(C5CCCC5)CC4)n3)cnc2c1	–	–	–	–	–	–	–	–	> 10000 nM	–	10 µL/min/mg	> 75 µL/min/mg	–	–	–
COc1ccn2c(-c3cncc(NCc4ccc(N5CCCC5)nc4)c3)cnc2c1	–	–	–	–	300 nM	–	–	–	13 nM	81 µM (≈ 32.4 µg/mL)	> 75 µL/min/mg	> 75 µL/min/mg	–	–	–
COc1ccn2c(-c3cc(NCc4ccc(-c5ccccc5)cc4)ncn3)cnc2c1	–	–	–	–	160 nM	–	–	–	4.6 nM	< 2 µM	10 µL/min/mg	< 10 µL/min/mg	–	–	–
CN1CCN(CCOc2ccn3c(-c4cncc(NCc5ccc(N6CCCC6)nc5)c4)cnc3c2)CC1	–	–	–	–	290 nM	–	–	–	11 nM	100 µM (≈ 51.3 µg/mL)	10 µL/min/mg	> 75 µL/min/mg	–	–	–
Cn1cc(-c2ccc(CNc3cc(-c4cnc5cc(OCCN6CCn7nncc7C6)ccn45)ncn3)cc2)cn1	18	2.8	7.6 ×10⁻⁶ cm/s	5.8	76 nM	< 4 µL/min/1e6 cells	10 µg/mL (≈ 18.3 µM)	-8%	–	–	–	–	–	–	–
Cn1cc(-c2ccc(CNc3cc(-c4cnc5cc(OCCCN6CCC(C)(F)CC6)ccn45)ncn3)cc2)cn1	1.3	4.3	1.8 ×10⁻⁶ cm/s	8.3	73 nM	10 µL/min/1e6 cells	2 µg/mL (≈ 3.61 µM)	-4%	–	–	–	–	–	–	–
Cn1cc(-c2ccc(CNc3cc(-c4cnc5cc(OCCN6CCC(C)(C#N)CC6)ccn45)ncn3)cc2)cn1	4.7	4.4	3.1 ×10⁻⁶ cm/s	6.9	93 nM	16 µL/min/1e6 cells	16 µg/mL (≈ 29.2 µM)	-15%	–	–	–	–	–	–	–
c1ccc2ncc(CNc3cncc(-c4cnc5ccccn45)c3)cc2c1	–	–	–	–	–	–	–	–	> 10000 nM	–	10 µL/min/mg	10 µL/min/mg	–	–	–
COCCOc1ccn2c(-c3cc(NCc4ccc(-c5cnn(C)n5)cc4)ncn3)cnc2c1	0.8	3	6.4 ×10⁻⁶ cm/s	–	46 nM	4 µL/min/1e6 cells	–	–	–	–	–	–	–	–	–
CC(Nc1cncc(-c2cnc3ccccn23)c1)c1ccc(N2CCCC2)nc1 (centres undefined)	–	–	–	–	2600 nM	–	–	–	83 nM	124 µM (≈ 47.7 µg/mL)	> 75 µL/min/mg	> 75 µL/min/mg	–	–	–
Cn1cc(-c2ccc(CNc3cc(-c4cnc5cc(OCCN6CCCC6)ccn45)ncn3)cc2)cn1	5.4	2.9	12 ×10⁻⁶ cm/s	9.1	70 nM	18 µL/min/1e6 cells	–	-78%	–	–	–	–	–	–	–
Cn1cc(-c2ccc(CNc3cc(-c4cnc5cc(OCCO)ccn45)ncn3)cc2)cn1	5	3	21 ×10⁻⁶ cm/s	–	75 nM	9 µL/min/1e6 cells	13 µg/mL (≈ 29.4 µM)	-23%	–	–	–	–	–	–	–
COCCOc1ccn2c(-c3cncc(NCc4ccc(N5CCCC5)nc4)c3)cnc2c1	–	–	–	–	110 nM	–	–	–	12 nM	9 µM (≈ 4 µg/mL)	> 75 µL/min/mg	> 75 µL/min/mg	–	–	–
c1ccc(-c2ccc(CNc3ccnc(-c4cnc5ccccn45)n3)cc2)cc1	–	–	–	–	340 nM	–	–	–	15 nM	< 3 µM	10 µL/min/mg	10 µL/min/mg	–	–	–
Cc1nc(-c2ccc(CNc3cc(-c4cnc5cc(OCCN6CCC(=O)N(C)CC6)ccn45)ncn3)cc2)co1	7.5	3.2	7.6 ×10⁻⁶ cm/s	6.3	54 nM	6 µL/min/1e6 cells	10 µg/mL (≈ 18.1 µM)	-7%	–	–	–	–	–	–	–
c1ccn2c(-c3cc(NCc4ccc(N5CCCC5)nc4)ncn3)cnc2c1	–	–	–	–	429 nM	–	–	–	–	< 3 µM	10 µL/min/mg	> 75 µL/min/mg	–	–	–
CN(Cc1ccc(N2CCCC2)nc1)c1cncc(-c2cnc3ccccn23)c1	–	–	–	–	–	–	–	–	240 nM	8 µM (≈ 3.08 µg/mL)	–	–	–	–	–
COc1ccn2c(-c3cc(NCc4ccc(-c5cnn(C)n5)cc4)ncn3)cnc2c1	0.7	4	9.5 ×10⁻⁶ cm/s	–	78 nM	8 µL/min/1e6 cells	4 µg/mL (≈ 9.7 µM)	–	–	–	–	–	–	–	–
COCCOc1ccn2c(-c3cc(NCc4ccc(-c5cnn(C)c5)cc4)ncn3)cnc2c1	0.9	3.8	12 ×10⁻⁶ cm/s	–	48 nM	18 µL/min/1e6 cells	2 µg/mL (≈ 4.39 µM)	1%	–	< 2 µM	10 µL/min/mg	> 75 µL/min/mg	Active	13 µg/mL (≈ 28.5 µM)	890 µg/mL (≈ 1950 µM)
Cn1cc(-c2ccc(CNc3cc(-c4cnc5cc(OCCCNC6COC6)ccn45)ncn3)cc2)cn1	15	1.5	9.5 ×10⁻⁶ cm/s	7.3	56 nM	10 µL/min/1e6 cells	16 µg/mL (≈ 31.3 µM)	-19%	–	–	–	–	–	–	–
